Patent US20080318931A1, “Treatment of Disorders and Diseases of the Colon” (priority 2004, published 2008)
Entries after “also recorded” stand apart in the source; their conditions may differ.

Legend:
human lymphocytes (PBMC) = assay: PHA-induced human lymphocyte proliferation, alamar blue; format: cell-based; conditions: PHA 2.5 μg/ml, 48 hours
Procedure: Human blood mononuclear cells (PBMC) were isolated from whole blood of 3 healthy volunteers using Ficoll-Paque gradient (Amersham Sweden). Lymphocyte proliferation was induced by exposure of 1×10^6 cells/well to phytohemagglutinin (PHA) (2.5 μg/ml). Cells were exposed to PHA and treated with vehicle or with paroxetine (2.5-10.0 μM). Cell viability was assessed 48 hours post exposure to paroxetine (2.5-10.0 μM) using Alamar blue reagent (Wildflower, Santa Fe, N. Mex., USA) according to Nociari et al (1998).

[1] = system: Con-A activated splenocytes; conditions: 5 μM
Procedure: (§3) LPS (manufactured by Sigma St. Louis Mo., USA, cat no L2880) was administered at 100 μg/mouse×2, on day 7 and day 14).

[2] = system: mouse splenocytes (basal); assay: Basal mouse splenocyte viability, alamar blue; format: cell-based; conditions: 2.5-10 μM, 48 hr
Procedure: (§1) Mouse splenocytes were isolated from C57b1 healthy female mice. Cells (10,000/well) were tested under basal and ConA stimulation. Cells were treated with vehicle, dexamethasone or antidepressants (2.5-10 μM). Viability was assessed 48 hr later using alamar blue staining. (Reagents were manufactured by Wildflower, Santa Fe, N. Mex., USA.) Alamar blue assay was performed as in Nociari et al (1998).

[3] = system: Con-A activated splenocytes; assay: cells; conditions: Mus musculus, Splenocyte, read-out: inhibition of viability, splenocytes from naïve animals
Procedure: as §3

human PBMC = assay: Viability of LPS-exposed human PBMC, alamar blue; format: cell-based; conditions: LPS 2 ug/well, 2.5-30 μM, 48 hours, both subjects
Procedure: Human PBMC were isolated from whole blood of 2 healthy volunteers (A and B subjects). Cells (2×10^6/ml) were exposed to LPS (2 ug/well) and treated with either the vehicle, or with paroxetine, sertraline, clomipramine and trifluoperazine (2.5-30 μM).

[4] = system: ConA-induced mouse splenocytes; assay: Con-A-induced mouse splenocyte proliferation/viability, alamar blue; format: cell-based; conditions: 48 hr
Procedure: as §1
(§2) Effect of paroxetine, (SSRI) and clomipramine (TCA) as compared to dexamethasone on Con-A-induced splenocyte proliferation (alamar blue method), and splenocyte-induced secretion of TH1 cytokines TNF-α, IL2 and INFγ, 1×10^6 cells/well, was measured 48 hours after exposure to drugs (2.5-10 μM).
In particular, mouse splenocytes were isolated from C57BL healthy female mice. Cells (10,000/well) were then exposed to Con-A (5 μM) and treated with either the vehicle, with dexamethasone or with a drug (2.5-10 μM).
Cell viability was assessed 48 hr later using Alamar blue staining. The results are presented in FIG. 4, where each point is the graph represents the mean of 4 determinations. […]. The IC50 determined for the antidepressant drugs was in the range of 2.5-5.5 μM.
Cells were treated with vehicle, or the antidepressants (2.5-20 μM). Viability was assessed 48 hours later using alamar blue staining. (Each point is the mean+/−SEM of 4 determinations).

[5] = system: TH1 cytokines TNF-α, IL2 and INFγ; assay: TH1 cytokine secretion (TNF-α, IL2, INFγ) from Con-A-induced splenocytes, ELISA; format: cell-based, mouse; conditions: 2.5-10 μM, 48 hours, 1×10^6 cells/well
Procedure: as §2
Cytokines were determined in the supernatant of the splenocyte specimens using an ELISA kit and protocol (Reagents by Cytolab). […] The pattern observed resembles that of dexamethasone.

[6] = system: splenocytes derived from treated mice; assay: ConA/basal proliferation ratio of splenocytes from mice treated in vivo for 7 days; parameters: species or system mouse; conditions: paroxetine 7.5, clomipramine 15 mg/kg x3/week i.p., Con A 5 μM in vitro
Procedure: Paroxetine or clomipramine were administered at 7.5 and 15 mg/kg x3/week i.p, respectively. Splenocytes were derived from treated animals.
Each group represents the mean of a pool of 5 animals.

[7] = system: Human Colon carcinoma (HT29) cell-line; assay: Viability of human colon carcinoma HT29 cells, alamar blue and neutral red; format: cell-based; conditions: 10-30 μM, FIG. 14
Procedure: Human Colon carcinoma (HT29) cell-line (ATCC USA) was maintained in RPMI medium supplemented with 10% fetal calf serum and penicillin (100 u/ml), streptomycin (100 mcg/ml), nystatin (12.5 u/ml), L-glutamine (2 mM). Confluent cultures were washed with phosphate-buffered saline (PBS), detached with trypsine (0.25%), centrifuged, and subcultured in 96-well microtiter test plates. Cells were exposed to vehicle or to psychotropic drugs. Cell viability was measured 24 hours later using the alamar blue and neutral red methods. Results were expressed as % of controls (vehicle treated cells). Each sample is the Mean+/−[…] of 4 determinations.

Cyclooxygenase-2 (Cox-2) = assay: Cox-2 expression in ConA stimulated mouse splenocytes, Western blot; format: cell-based; conditions: 5 μM, normalized to actin
Procedure: Determination was performed using Western blot analysis and quantitative dencitometry of blot.
For each sample 2×10^7 cells were used. Cells were lysed, and equal amounts of protein was fractionated on polyacrylamide gel and then transferred to PVDF membrane. The amount of the protein was detected by immuno-blotting with […] anti-Cox-2 anti body (Murine anti COX2 Polyclonal Cat. 160126, Ann Arbor, Mich., USA. 2nd antibody conjugated to horseradish peroxidase was used and visualized with chemiluminescent Kit (Pierce, Rockford, Ill., USA) on film. Quantification of blot was performed using a densitometry apparatus (VersaDoc™ imaging system, BioRad, USA) and levels were normalized to actin.

Stat3 = Stat3 expression in human PHA activated lymphocytes, Western blot; format: cell-based; conditions: 5 μM, PHA 15 μM
Procedure: Total protein lysates from human lymphocyte culture were prepared by agitation with lysis buffer (20 mM Tris pH 7.5, 150 mM NaCl, 1 mM EDTA, 1% Nonidet P-40, 0.5% sodium deoxycholate, and 2 mM Na2VO4) for 1 h at 4° C. The proteins were cleared by centrifugation at 14,000×g for 20 min at 4° C. Protein concentration was determined using BCA kit (Pierce, Ill., USA). For Western blot analysis, 30 μg-protein from each sample were loaded in 7.5% SDS-PAGE. Electroblotted proteins were detected using specific anti COX-2 polyclonal antibody (Cayman chemical company, Michigan, USA) or an ti-Stat3 monoclonal antibody (Transduction Laboratories Lexington UK). Bound antibodies were visualized using chemiluminescence reaction.

Fc1ccc([C@@H]2CCNC[C@H]2COc2ccc3c(c2)OCO3)cc1 [paroxetine]
IC50 (human lymphocytes (PBMC)): 5 to 10 µM
response of splenocytes from LPS mice treated in vivo with sertraline ([1]; LPS mice + sertraline 5 mg/kg×3/week two weeks): more responsive
response of splenocytes from LPS mice ([1]; LPS-treated mice): in a manner similar to the naive animals
basal splenocyte proliferation [2]: dose dependent decrease
cytotoxicity at 5 µM [3]: 10%
order of potency, decrease in cell viability (human PBMC): sertraline>paroxetine>trifluoperazine>/=clomipramine
ConA (mitogen)-induced splenocyte proliferation ([4]; 2.5-10 μM, alamar blue): dose dependent decrease; also recorded: dose-dependent decrease
cell viability compared to dexamethasone ([4]; Con-A 5 μM, drug 2.5-10 μM): decreased cell viability to the same extent as compared to dexamethasone
lymphocyte-induced pro-inflammatory cytokine secretion [5]: decrease
capacity to respond to Con-A (ratio ConA/basal) vs vehicle treated mice [6]: not
inhibition of cell viability [7]: 64%
reduction of Cox-2 expression (Cyclooxygenase-2 (Cox-2)): 22.2%
PHA-induced increase in Stat3 expression (Stat3): antagonized
